US9901617B2, “Cell permeable inhibitors of the scaffold protein plenty of SH3 domains (POSH) or Sh3Rfl” (The Curators of the University of Missouri, priority 2013, dated 2018)
No end group written: not given here.

Columns and labels:
POSH/JIP-1 complex = POSH/JIP-1 complex (Mus musculus, UniProt Q9WVI9)
Protocol: To identify a role for POSH in TCR-mediated JNK activation, we established its ability to bind components of the JNK signaling cascade in CD8+ T cells. For this, OT-1 TCR transgenic blasts (CTL) were re-stimulated with OVA-Tetramer (Tet)/α-CD28 and subjected to IP with antibodies against Rac1. Co-immunoprecipitation (Co-IP) of components of the JNK signaling pathway was assessed by immunoblot. […] To circumvent this problem we performed Co-IP analyses by flow cytometry (IP-FCM) using α-Rac1, α-POSH and α-JIP-1 antibodies covalently linked to latex beads. The beads were incubated with the lysates washed and probed with antibodies against the Co-IP target. The levels of associated molecules (secondary analyte/Co-IP target) were quantified relative to IP target (primary analyte/loading control). Specificity was determined by comparison to both isotype and negative control antibodies (FIG. 5 and FIG. 6). […] For IP-FCM quantification controls and Tat-POSH inhibitor specificity controls, OT-I T cells were stimulated with OVA-Tet for 24 hours. Cells were then lysed and subjected to IP-FCM using α-Rac-1, α-POSH or α-JIP-1 beads (FIG. 6A).
Cells were then lysed and subjected to IP-FCM using α-JIP-1 or α-Rac1 beads and the relative levels of POSH or JIP-1 were determined.

T cells = settings: across a large range of concentrations
CD8+ T cells = settings: data not shown

Sequence of POSH/JIP-1 complex (Q9WVI9 whole entry): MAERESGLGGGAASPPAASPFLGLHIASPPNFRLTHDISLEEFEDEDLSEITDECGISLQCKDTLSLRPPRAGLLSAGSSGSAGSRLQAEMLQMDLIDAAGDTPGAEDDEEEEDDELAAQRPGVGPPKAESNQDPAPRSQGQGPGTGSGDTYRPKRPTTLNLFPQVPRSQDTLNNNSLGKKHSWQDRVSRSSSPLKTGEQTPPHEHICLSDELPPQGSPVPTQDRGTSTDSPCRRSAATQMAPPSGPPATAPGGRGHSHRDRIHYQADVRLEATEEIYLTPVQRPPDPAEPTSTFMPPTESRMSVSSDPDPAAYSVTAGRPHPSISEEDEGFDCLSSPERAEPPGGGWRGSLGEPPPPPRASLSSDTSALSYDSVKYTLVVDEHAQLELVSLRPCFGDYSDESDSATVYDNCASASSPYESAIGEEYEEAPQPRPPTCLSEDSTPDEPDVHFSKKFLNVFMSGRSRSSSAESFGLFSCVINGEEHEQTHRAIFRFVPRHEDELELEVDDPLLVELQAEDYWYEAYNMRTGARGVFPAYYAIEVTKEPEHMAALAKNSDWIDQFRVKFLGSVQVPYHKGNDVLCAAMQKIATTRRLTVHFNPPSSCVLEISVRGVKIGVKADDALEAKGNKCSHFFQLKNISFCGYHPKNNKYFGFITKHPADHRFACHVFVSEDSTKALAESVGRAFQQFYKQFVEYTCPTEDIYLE
Sequence of POSH/JIP-1 complex (Q8CE90 whole entry partner): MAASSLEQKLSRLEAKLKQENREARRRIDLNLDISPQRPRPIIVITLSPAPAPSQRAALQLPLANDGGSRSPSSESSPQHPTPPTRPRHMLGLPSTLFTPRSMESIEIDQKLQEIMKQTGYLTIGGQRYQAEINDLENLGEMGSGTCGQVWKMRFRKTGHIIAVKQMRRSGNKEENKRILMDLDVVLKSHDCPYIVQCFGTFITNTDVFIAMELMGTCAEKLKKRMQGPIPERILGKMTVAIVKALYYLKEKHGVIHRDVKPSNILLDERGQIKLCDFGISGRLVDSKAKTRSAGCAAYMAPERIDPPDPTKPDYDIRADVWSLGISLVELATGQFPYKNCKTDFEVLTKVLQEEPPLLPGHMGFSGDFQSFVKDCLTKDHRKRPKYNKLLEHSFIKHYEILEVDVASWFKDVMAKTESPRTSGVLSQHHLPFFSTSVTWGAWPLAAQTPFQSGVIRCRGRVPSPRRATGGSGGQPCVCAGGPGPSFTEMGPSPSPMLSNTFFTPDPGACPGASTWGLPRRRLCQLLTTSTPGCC
Sequence of POSH/JIP-1 complex (Q91Y86 whole entry partner): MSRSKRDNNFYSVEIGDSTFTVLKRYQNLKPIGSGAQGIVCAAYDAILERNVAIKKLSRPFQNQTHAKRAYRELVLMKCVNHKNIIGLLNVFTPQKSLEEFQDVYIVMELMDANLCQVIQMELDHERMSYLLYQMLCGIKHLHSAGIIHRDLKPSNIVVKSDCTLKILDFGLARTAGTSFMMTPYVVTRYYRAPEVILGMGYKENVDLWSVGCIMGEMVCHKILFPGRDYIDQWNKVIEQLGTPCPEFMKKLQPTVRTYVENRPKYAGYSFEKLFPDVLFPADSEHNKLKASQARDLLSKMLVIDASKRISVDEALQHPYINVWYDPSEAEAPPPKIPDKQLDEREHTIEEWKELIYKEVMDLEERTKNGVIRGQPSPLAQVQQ

In the case of “GRKKRRQRRRPPRKEDELELRKGEMFLVFER [Tat-POSH SH3.3]”, the POSH/JIP-1 complexes disrupted (POSH/JIP-1 complex) is reported as “approximately 30%”, the “effect on normal cells” value (normal thymocytes) is reported as “not affected” and the “toxicity to T cells” value (T cells) is reported as “non-toxic”. The “reduction in in vitro cytotoxicity” value (CD8+ T cells) was 10-15%.
